Test results taken from ChEMBL document CHEMBL5108044, “Discovery of a Novel Potent STAT3 Inhibitor HP590 with Dual p-Tyr705/Ser727 Inhibitory Activity for Gastric Cancer Treatment” (J Med Chem, 2022).
Activity calls are given as the source filed them. The calls are words filed in the database; no cut-off is given here.

Columns and labels:
[1] = tested on: AGS; assay: Induction of apoptosis in human AGS cells assessed as necrotic cells 20 nM incubated for 48 hrs by FITC-annexin V/propidium iodide staining based flow cytometry (reference value: 2.70%); assay type: functional
[2] = biological target: T1, Signal transducer and activator of transcription 3 (Homo sapiens, UniProt P40763); assay: Binding affinity to human STAT3-SH2 domain (127 to 722 residues) assessed as dissociation constant by MST assay
T1 sequence (P40763 whole entry, the tested form may be a part): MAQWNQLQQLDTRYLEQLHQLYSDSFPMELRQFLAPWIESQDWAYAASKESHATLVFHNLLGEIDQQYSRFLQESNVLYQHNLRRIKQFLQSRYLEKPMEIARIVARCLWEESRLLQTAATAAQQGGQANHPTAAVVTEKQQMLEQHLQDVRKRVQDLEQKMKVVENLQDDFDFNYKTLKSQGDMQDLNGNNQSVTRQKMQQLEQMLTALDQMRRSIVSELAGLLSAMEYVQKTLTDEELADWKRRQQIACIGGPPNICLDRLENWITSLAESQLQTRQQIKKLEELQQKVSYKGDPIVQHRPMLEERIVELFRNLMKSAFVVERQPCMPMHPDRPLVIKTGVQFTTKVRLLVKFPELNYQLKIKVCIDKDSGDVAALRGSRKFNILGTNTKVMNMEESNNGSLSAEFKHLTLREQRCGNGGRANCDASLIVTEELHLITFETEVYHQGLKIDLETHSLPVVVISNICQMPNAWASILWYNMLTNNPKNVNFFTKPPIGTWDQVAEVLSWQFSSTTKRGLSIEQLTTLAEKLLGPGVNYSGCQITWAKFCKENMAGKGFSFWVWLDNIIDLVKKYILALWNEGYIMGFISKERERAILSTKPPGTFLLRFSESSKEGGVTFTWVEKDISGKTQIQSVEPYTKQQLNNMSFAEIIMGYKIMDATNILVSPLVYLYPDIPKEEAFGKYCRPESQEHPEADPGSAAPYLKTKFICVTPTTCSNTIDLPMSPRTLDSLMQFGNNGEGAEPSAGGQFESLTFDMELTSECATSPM

[3] = tested on: AGS; assay: Induction of apoptosis in human AGS cells assessed as early apoptic cells 10 nM incubated for 48 hrs by FITC-annexin V/propidium iodide staining based flow cytometry (reference value: 0.55%); assay type: functional
[4] = AUC (0 to t) in ICR mouse plasma at 1 mg/kg, iv measured up to 24 hrs by LC-MS/MS analysis; assay type: ADME, organism-based; set-up: dose 1 mg/kg, time < 24 hrs, route iv
[5] = Cmax in ICR mouse plasma at 1 mg/kg, iv measured up to 24 hrs by LC-MS/MS analysis; assay type: ADME, organism-based; set-up: time < 24 hrs, dose 1 mg/kg, route iv
[6] = biological target: T1, Signal transducer and activator of transcription 3; assay: Inhibition of STAT3 phosphorylation at Ser727 residue in human AGS cells incubated upto 24 hrs by Western blotting analysis; assay type: cell-based; settings: dose <= 40.0 nM, DDE = dose-dependent effect
[7] = biological target: T1, Signal transducer and activator of transcription 3; assay: Binding affinity to human STAT3 (127 to 722 residues) assessed as dissociation constant by MST assay
[8] = biological target: T1, Signal transducer and activator of transcription 3; assay: Inhibition of STAT3 in human MKN-45 cells assessed as downregulation of cyclin D1 expression up to 40 nM by western blot analysis; assay type: cell-based; settings: time <= 24.0 hrs, TDE = time-dependent effect
[9] = biological target: T1, Signal transducer and activator of transcription 3; assay: Inhibition of STAT3 in human MKN-45 cells assessed as downregulation of cyclin D1 expression at 10 to 40 nM incubated for 24 hrs by RT-PCR analysis; assay type: cell-based; settings: dose 10-40 nM
[10] = biological target: Cytochrome P450 2C19 (Homo sapiens, UniProt P33261); assay: Inhibition of CYP2C19 in human liver microsome; assay type: ADME, microsomes
Chain of Cytochrome P450 2C19 (P33261 whole entry): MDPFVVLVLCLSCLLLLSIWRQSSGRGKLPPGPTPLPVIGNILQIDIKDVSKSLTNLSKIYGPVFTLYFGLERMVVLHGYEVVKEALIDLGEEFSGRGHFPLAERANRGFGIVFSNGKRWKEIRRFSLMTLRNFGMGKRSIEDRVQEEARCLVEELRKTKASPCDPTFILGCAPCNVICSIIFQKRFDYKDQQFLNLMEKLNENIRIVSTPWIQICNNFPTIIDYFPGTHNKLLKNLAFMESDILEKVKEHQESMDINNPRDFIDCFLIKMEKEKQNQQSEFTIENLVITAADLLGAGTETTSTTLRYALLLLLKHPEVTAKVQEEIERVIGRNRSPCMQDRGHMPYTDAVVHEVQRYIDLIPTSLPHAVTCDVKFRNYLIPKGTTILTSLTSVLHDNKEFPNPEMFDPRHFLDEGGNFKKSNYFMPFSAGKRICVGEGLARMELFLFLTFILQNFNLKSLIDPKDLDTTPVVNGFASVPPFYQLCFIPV

[11] = biological target: Cytochrome P450 3A4 (Homo sapiens, UniProt P08684); assay: Inhibition of CYP3A4 in human liver microsome; assay type: ADME, microsomes
Chain of Cytochrome P450 3A4 (P08684 whole entry): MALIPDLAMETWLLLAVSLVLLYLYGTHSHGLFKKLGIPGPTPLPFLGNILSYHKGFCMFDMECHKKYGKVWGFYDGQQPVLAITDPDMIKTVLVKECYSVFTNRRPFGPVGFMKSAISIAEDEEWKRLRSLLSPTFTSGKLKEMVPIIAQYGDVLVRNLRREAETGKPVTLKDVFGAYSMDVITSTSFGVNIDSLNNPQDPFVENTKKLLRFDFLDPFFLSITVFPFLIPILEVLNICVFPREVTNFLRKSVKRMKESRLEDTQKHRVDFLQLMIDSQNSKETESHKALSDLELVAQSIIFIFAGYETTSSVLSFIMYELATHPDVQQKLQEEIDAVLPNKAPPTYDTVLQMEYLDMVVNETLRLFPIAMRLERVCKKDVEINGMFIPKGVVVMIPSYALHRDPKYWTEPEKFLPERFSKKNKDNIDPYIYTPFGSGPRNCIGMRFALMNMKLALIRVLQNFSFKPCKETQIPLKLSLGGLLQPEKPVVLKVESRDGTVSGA

[12] = biological target: T1, Signal transducer and activator of transcription 3; assay: Inhibition of STAT3 phosphorylation at Ser727 residue in human MGC-803 cells incubated upto 24 hrs by Western blotting analysis; assay type: cell-based; settings: dose <= 40.0 nM, DDE = dose-dependent effect
[13] = Elimination half life in ICR mouse plasma at 1 mg/kg, iv measured up to 24 hrs by LC-MS/MS analysis; assay type: ADME, organism-based; settings: read-out: beta t1/2 (converted)
[14] = biological target: T1, Signal transducer and activator of transcription 3; assay: Inhibition of STAT3 phosphorylation at Tyr705 residue in human MGC-803 cells upto 40 nM by Western blotting analysis; assay type: cell-based; settings: time <= 24.0 hrs, TDE = time-dependent effect
[15] = tested on: MKN-45; assay: Induction of apoptosis in human MKN-45 cells assessed as viable cells at 10 nM incubated for 48 hrs by FITC-annexin V/propidium iodide staining based flow cytometry (reference value: 68%); assay type: functional; settings: read-out: Activity
[16] = tested on: MKN-45; assay: In vivo inhibition of STAT3 phosphorylation at Ser727 residue in human MKN-45 cells xenografted in BALB/c nude mouse at 25 to 50 mg/kg, po qd administered for 5 weeks by western blot analysis; assay type: functional, organism-based; settings: dose 25-50 mg/kg
[17] = Antiproliferative activity against human HPNE cells assessed as cell viability measured upto 1 uM incubated for 72 hrs by MTS assay; assay type: toxicity, cell-based; settings: htert-hpne
[18] = biological target: T1, Signal transducer and activator of transcription 3; assay: Inhibition of STAT3 phosphorylation at Ser727 residue in human MKN-45 cells upto 40 nM by Western blotting analysis; assay type: cell-based; settings: time <= 24.0 hrs, TDE = time-dependent effect
[19] = biological target: Tyrosine-protein kinase JAK1 (Homo sapiens, UniProt P23458); assay: Inhibition of JAK1 (unknown origin)
Chain of Tyrosine-protein kinase JAK1 (P23458 whole entry): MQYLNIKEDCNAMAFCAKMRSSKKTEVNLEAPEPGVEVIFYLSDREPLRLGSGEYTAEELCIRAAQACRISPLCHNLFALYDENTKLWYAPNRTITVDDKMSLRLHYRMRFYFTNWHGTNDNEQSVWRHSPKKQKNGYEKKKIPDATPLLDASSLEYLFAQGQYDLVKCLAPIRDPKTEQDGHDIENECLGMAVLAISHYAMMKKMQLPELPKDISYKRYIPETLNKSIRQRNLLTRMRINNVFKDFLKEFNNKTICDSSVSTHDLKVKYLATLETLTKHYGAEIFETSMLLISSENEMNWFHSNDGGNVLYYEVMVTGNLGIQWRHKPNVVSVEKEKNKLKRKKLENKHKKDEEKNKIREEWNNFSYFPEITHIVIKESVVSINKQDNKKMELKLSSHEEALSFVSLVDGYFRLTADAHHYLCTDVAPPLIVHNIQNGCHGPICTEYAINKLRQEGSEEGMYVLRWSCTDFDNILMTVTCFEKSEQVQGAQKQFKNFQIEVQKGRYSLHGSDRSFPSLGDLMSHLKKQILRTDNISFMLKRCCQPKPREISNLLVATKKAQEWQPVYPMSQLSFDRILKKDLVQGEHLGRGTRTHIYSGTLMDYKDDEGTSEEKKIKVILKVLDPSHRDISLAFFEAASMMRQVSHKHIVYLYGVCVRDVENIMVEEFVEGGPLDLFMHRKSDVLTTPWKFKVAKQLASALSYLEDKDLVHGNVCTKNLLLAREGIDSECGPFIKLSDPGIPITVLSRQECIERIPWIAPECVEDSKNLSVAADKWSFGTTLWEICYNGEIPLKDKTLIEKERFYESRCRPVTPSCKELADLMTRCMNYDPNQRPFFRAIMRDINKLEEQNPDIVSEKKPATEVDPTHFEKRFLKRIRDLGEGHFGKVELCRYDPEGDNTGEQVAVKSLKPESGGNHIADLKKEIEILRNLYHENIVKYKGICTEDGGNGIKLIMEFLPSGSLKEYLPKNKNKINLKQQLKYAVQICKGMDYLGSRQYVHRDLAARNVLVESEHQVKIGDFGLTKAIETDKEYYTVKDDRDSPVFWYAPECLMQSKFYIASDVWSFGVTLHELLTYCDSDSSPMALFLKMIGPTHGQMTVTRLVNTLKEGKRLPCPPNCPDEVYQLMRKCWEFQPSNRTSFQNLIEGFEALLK

[20] = tested on: AGS; assay: Induction of apoptosis in human AGS cells assessed as viable cells at 5 nM incubated for 48 hrs by FITC-annexin V/propidium iodide staining based flow cytometry (reference value: 87.2%); assay type: functional; settings: read-out: Activity
[21] = biological target: T1, Signal transducer and activator of transcription 3; assay: Inhibition of STAT3 phosphorylation at Tyr705 residue in human MKN-45 cells upto 40 nM by Western blotting analysis; assay type: cell-based; settings: time <= 24.0 hrs, TDE = time-dependent effect
[22] = tested on: AGS; assay: Induction of apoptosis in human AGS cells assessed as late apoptic cells 5 nM incubated for 48 hrs by FITC-annexin V/propidium iodide staining based flow cytometry (reference value: 9.56%); assay type: functional
[23] = biological target: T1, Signal transducer and activator of transcription 3; assay: Inhibition of STAT3 in human GES1cells assessed as downregulation of Cyclin D1 expression at 10 to 40 nM incubated for 24 hrs by RT-PCR analysis; assay type: cell-based; settings: GES1, dose 10-40 nM
[24] = biological target: Epidermal growth factor receptor (Homo sapiens, UniProt P00533); assay: Inhibition of EGFR (unknown origin)
Chain of Epidermal growth factor receptor (P00533 whole entry): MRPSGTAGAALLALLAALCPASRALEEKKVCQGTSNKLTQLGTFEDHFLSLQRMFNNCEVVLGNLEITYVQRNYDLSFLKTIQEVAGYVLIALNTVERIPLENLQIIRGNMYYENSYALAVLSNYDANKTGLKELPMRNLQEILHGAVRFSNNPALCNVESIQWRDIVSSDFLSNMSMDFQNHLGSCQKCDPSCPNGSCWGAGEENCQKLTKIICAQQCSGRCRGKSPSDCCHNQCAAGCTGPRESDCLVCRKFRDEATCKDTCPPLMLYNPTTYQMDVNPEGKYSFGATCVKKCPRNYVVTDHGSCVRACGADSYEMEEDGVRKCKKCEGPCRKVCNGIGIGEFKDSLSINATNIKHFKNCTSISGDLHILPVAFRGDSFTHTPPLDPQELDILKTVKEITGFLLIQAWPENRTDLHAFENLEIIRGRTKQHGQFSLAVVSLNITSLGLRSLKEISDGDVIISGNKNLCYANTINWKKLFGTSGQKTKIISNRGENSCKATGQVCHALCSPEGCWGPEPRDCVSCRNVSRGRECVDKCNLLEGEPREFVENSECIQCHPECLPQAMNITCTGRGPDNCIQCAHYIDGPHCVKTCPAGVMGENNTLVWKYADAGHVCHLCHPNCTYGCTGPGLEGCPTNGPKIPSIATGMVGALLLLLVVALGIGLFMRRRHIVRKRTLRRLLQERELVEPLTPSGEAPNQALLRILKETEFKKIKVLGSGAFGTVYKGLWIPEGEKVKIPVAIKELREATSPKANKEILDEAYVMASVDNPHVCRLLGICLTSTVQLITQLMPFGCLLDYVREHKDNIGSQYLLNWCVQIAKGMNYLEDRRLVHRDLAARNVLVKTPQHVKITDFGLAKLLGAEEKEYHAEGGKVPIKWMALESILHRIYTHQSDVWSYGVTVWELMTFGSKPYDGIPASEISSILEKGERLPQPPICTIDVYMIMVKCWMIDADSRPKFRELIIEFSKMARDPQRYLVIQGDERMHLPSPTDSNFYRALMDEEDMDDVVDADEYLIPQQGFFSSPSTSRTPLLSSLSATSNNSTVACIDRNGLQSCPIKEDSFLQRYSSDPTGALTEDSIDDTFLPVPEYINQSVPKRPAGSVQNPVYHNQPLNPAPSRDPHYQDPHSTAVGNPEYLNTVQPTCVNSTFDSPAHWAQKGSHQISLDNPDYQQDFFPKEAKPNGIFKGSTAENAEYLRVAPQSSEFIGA

[25] = tested on: AGS; assay: Induction of apoptosis in human AGS cells assessed as viable cells at 20 nM incubated for 48 hrs by FITC-annexin V/propidium iodide staining based flow cytometry (reference value: 87.2%); assay type: functional; settings: read-out: Activity
[26] = tested on: MGC-803; assay: Antiproliferative activity against human MGC-803 cells assessed as cell viability incubated for 72 hrs by MTS assay; assay type: functional, cell-based; settings: dose <= 100.0 nM, DDE = dose-dependent effect
[27] = tested on: MGC-803; assay: Potency index, ratio of IC50 for BBI608 to IC50 for test compound for antiproliferative activity against human MGC-803 cells assessed as reduction in cell viability incubated for 72 hrs by MTS assay; assay type: functional
[28] = tested on: MKN-45; assay: In vivo inhibition of STAT3 phosphorylation at Tyr705 residue in human MKN-45 cells xenografted in BALB/c nude mouse at 25 to 50 mg/kg, po qd administered for 5 weeks by immunohistochemical analysis; assay type: functional, organism-based; settings: dose 25-50 mg/kg
[29] = biological target: Mitogen-activated protein kinase 3 (Homo sapiens, UniProt P27361); assay: Inhibition of ERK1 (unknown origin)
Chain of Mitogen-activated protein kinase 3 (P27361 whole entry): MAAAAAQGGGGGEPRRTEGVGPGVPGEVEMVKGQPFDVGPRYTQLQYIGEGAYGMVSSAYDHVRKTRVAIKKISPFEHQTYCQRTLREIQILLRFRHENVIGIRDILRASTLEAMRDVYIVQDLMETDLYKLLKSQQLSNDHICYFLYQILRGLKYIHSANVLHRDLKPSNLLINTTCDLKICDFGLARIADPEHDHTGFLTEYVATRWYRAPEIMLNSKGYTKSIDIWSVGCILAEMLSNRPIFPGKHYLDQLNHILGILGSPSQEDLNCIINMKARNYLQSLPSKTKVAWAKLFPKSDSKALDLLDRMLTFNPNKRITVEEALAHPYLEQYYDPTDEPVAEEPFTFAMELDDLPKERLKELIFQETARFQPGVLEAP

[30] = tested on: MKN-45; assay: Inhibition of mitochondrial respiration in human MKN-45 cells assessed as oxygen consumption rate incubated for 1 hr by Seahorse XF24 extracellular flux analyzer; assay type: functional, cell-based; settings: dose 1-100 nM, DDE = dose-dependent effect
[31] = tested on: MKN-45; assay: Inhibition of STAT3 mediated oxidative phosphorylation at Ser727 residue in human MKN-45 cells assessed as reduction in oxidative phosphorylation at less than 40 nM incubated for 1 hr by Seahorse XF24 extracellular flux analyzer; assay type: functional, cell-based
[32] = biological target: Cytochrome P450 2D6 (Homo sapiens, UniProt P10635); assay: Inhibition of CYP2D6 in human liver microsome; assay type: ADME, microsomes
Chain of Cytochrome P450 2D6 (P10635 whole entry): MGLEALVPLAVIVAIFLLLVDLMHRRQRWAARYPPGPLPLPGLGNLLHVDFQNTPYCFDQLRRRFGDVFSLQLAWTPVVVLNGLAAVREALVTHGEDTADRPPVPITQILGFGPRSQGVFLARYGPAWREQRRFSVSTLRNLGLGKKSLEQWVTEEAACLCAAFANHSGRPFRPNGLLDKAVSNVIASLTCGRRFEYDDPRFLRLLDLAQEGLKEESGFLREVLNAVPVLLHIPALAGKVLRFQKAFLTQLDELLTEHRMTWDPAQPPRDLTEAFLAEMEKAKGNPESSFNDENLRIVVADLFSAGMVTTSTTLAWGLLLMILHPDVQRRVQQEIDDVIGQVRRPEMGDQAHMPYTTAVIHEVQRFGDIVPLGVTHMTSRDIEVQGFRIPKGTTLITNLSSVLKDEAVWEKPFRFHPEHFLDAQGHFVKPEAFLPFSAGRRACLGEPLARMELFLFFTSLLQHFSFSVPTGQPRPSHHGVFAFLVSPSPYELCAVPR

[33] = tested on: MKN-45; assay: Inhibition of mitochondrial respiration in STAT3 knockdown human MKN-45 cells assessed as oxygen consumption rate incubated for 80 mins […]; assay type: functional, cell-based
[34] = tested on: AGS; assay: Potency index, ratio of IC50 for BBI608 to IC50 for test compound for antiproliferative activity against human AGS cells assessed as reduction in cell viability incubated for 72 hrs by MTS assay; assay type: functional
[35] = biological target: T1, Signal transducer and activator of transcription 3; assay: Inhibition of STAT3 phosphorylation at Tyr705 residue in human AGS cells upto 40 nM incubated upto 24 hrs by Western blotting analysis; assay type: cell-based
[36] = biological target: T1, Signal transducer and activator of transcription 3; assay: Inhibition of STAT3 phosphorylation at Tyr705 residue in human MGC-803 cells upto 40 nM incubated upto 24 hrs by Western blotting analysis; assay type: cell-based
[37] = tested on: MKN-45; assay: Antiproliferative activity against human MKN-45 cells assessed as reduction in cell viability incubated for 72 hrs by MTS assay; assay type: functional, cell-based; settings: MKN-45, 72 h

Kd [2]: 0.114 µM | AUC(0-t) at 24 h [4]: 1730 ng·h/mL | Cmax [5]: 666 ng/mL | inhibition [6]: Dde | Kd [7]: 0.0764 µM | inhibition [8]: Tde | inhibition [9]: Active | IC50 [10]: 15.9 µM | IC50 [11]: > 50 µM | inhibition [12]: Dde | half-life [13]: 9.06 h | inhibition [14]: Tde | inhibition [18]: Tde | IC50 [19]: > 10 µM | inhibition [21]: Tde | inhibition [23]: Active | IC50 [24]: > 10 µM | IC50 [29]: > 10 µM | IC50 [32]: > 50 µM | inhibition [35]: 100% | inhibition [36]: 100% | IC50 [37]: 0.0093 µM
SMILES: O=C(c1ccc(-c2noc(-c3ccc(C(F)(F)F)cc3)n2)cc1)N1CCN(Cc2ccc(OCC(F)(F)F)cc2)CC1
Activity [1]: 0.8% | Activity [3]: 2.57% | viability at 0.01 µM [15]: 68.5% | inhibition [16]: Active | Activity [17]: Non-Toxic | viability at 0.005 µM [20]: 85.7% | Activity [22]: 7.61% | viability at 0.02 µM [25]: 50.3% | Activity [26]: Dde | Ratio IC50 [27]: 30 | inhibition [28]: Active | inhibition [30]: Dde | inhibition [31]: Active | inhibition [33]: Active | Ratio IC50 [34]: 30
